We go through three compounds from patent US20190365762A1, “MEDICINAL COMPOSITION INHIBITING NEOVASCULARIZATION PROLIFERATION FACTOR” (KYOTO UNIVERSITY, priority 2014, published 2019).

Entries after “also recorded” stand apart in the source; their conditions may differ.

Series [1] has as its system model mice with choroidal neovascularization (CNV). As to the kind of experiment: CNV formation in CNV model mice, ophthalmic ointment (Experiment 4). It counts as in vivo. To be noted: ophthalmic ointment with 10 g compound 2 per 100 g, 7 μL three times a day, versus base material only, FIG. 4. The procedure:
[Experiment 4: Preparation of Ophthalmic Ointment and Evaluation of Effect of Inhibiting CNV Formation by Using the Ophthalmic Ointment]
An ophthalmic ointment with the following composition was prepared.
60 g of liquid paraffin; and
30 g of white petrolatum.
An experiment was performed in the same manner as Experiment 2 except that the ophthalmic ointment was applied in a dose of 7 μL three times a day, instead of the intravitreal injection, and the CNV inhibition was evaluated. Moreover, an ophthalmic ointment containing only a base material was used as a control, and the same experiment was performed. FIG. 4 illustrates the results. A of FIG. 4 is a graph that indicates the area of CNV.

Series [2] deals with vascular endothelial growth factor (VEGF). Nature of the series: VEGF protein in culture medium of ARPE-19 cells by ELISA (Experiment 1). The settings on record: compound 10 μM, TGF-β 1 nM, 72 hours, FIG. 1. In kind it is cell-based, human. The procedure: [Experiment 1: Evaluation of Effect of Inhibiting VEGF Expression by Compounds 1 to 3]
The synthesized compounds 1 to 3 and the following reference compound were administered to human retinal pigment epithelial cells (ARPE-19 cell line). After 3 days of cultivation, each culture medium was subjected to ELISA to determine a vascular endothelial growth factor (VEGF). The details of the experiment are as follows. FIG. 1 illustrates the results.
A retinal pigment epithelial cell line, i.e., ARPE-19 was used. The ARPE-19 was cultured in Ham's F-12/DMEM medium containing 10% fetal bovine serum and 1% penicillin-streptomycin solution. The cells were seeded on a 24 well plate at 1.0×10^4 cell/well. On the next day, the culture medium was replaced with 1% fetal bovine serum. Further, the culture medium was removed 24 hours later and replaced with a culture medium (containing 1% fetal bovine serum) to which the compound (10 μM) and TGF-β (1 nM) were added. The culture medium was replaced every 24 hours in the same manner. Then, the culture medium was collected after 72 hours had passed from the administration of the compound. An ELISA kit (manufactured by R&D Systems, Inc.) was used to measure the amount of VEGF protein in the culture medium. The absorbance was measured by an ARVO X5 multiplate reader.
For orientation: An ELISA detects its analyte on a solid surface through an enzyme-linked reagent.

In series [3] the test system is model mice with choroidal neovascularization (CNV). Nature of the series: CNV formation in laser-induced CNV model mice, intravitreal injection (Experiments 2 and 3). It counts as in vivo. The settings on record: for CNV formation (area of CNV): 20 pmol intraocularly injected immediately after laser irradiation, 7 days, C57B/6J mice, FIG. 2. Here is the method:
[Experiment 2: Evaluation of Effect of Inhibiting CNV Formation by Compounds 1 to 3]
The synthesized compounds 1 to 3 and the above reference compound were administered to model mice with choroidal neovascularization (CNV) by intravitreal injection, and the CNV inhibition was evaluated. The details of the experiment are as follows. FIG. 2 illustrates the results.
100 mg/kg of ketamine and 10 mg/kg of xylazine were intraperitoneally injected into 6- to 8-week-old C57B/6J mice (Japan SLC, Inc.), and the mice were placed under anesthesia. Then, eyedrops (SANDOL P) containing tropicamide (5 mg/ml) and phenylephrine (5 mg/ml) were used to dilate the pupil. Any four points of the fundus were irradiated with a 532 nm argon laser (100 mW, 0.1 s, 75 μm) to form new blood vessels. The compound (20 pmol) was intraocularly injected immediately after the laser irradiation, and an ofloxacin (Tarivid) ophthalmic ointment was applied to the corneal surface to prevent infection and drying.
100 mg/kg of ketamine and 10 mg/kg of xylazine were intraperitoneally injected into the mice after 7 days had passed from the laser irradiation, and the mice were placed under anesthesia. Then, the mice underwent thoracotomy and were perfused with FITC-dextran (50 mg/ml; Life Technologies Japan Ltd.) through the left ventricle. After the perfusion, the eyes were enucleated and fixed in 4% paraformaldehyde. After the fixation, the corneas, crystalline lenses, and retinas were removed, and the flat mount of the choroid was obtained. CNV was imaged with a fluorescence microscope (BZ-9000; Keyence Corporation) so that the area of the CNV was measured.
An experiment was performed in the same manner as Experiment 2 by administering the compound 2 at different concentrations (0.2 µM, 2 µM, 20 µM), and the CNV inhibition was evaluated. FIG. 3 illustrates the results.

The test system of series [4] is SRPK (kinase). The settings on record: see WO 2005/063293; cited from earlier work.
The conditions of series [5]: see WO 2005/063293; cited from earlier work.
In series [6] the test system is retinal neovascularization. To be noted: Nowak D G, Bates D O et al., J. Bio. Chem. 2010; cited from earlier work.

Compound `COc1cc(/C=C2\C(=N)N3N=C(C(F)(F)F)SC3=NC2=O)ccc1O` [compound 2, 6-(4-hydroxy-3-methoxybenzylidene)-5-imino-2-(trifluoromethyl)-5,6-dihydro-7H-[1,3,4]thiadiazolo[3,2-a]pyrimidin-7-one] registered a melting point of 224 to 225 °C. Moreover, the “CNV formation (area of CNV)” value in series [1] was “reduced the CNV formation”. Further, the “amount of VEGF protein in the culture medium” value in series [2] is “particularly significant”. The “CNV formation (area of CNV)” value in series [3] is on record as “significant; also recorded: more prominent”. For the same compound, in series [3] (intravitreal injection, FIG. 3), the “concentration dependence of reduction of CNV formation” value was “reduced the CNV formation in a concentration-dependent manner”.
Regarding `COc1cc(/C=C2/C(=O)NN(c3ccc(Cl)c(Cl)c3)C2=O)ccc1O` [compound 1, 1-(3,4-dichlorophenyl)-4-(4-hydroxy-3-methoxybenzylidene)pyrazolidine-3,5-dione], the melting point was 260 °C (dec.). Moreover, the “CNV formation (area of CNV)” value in series [3] was “significant”.
For the compound `O=C(Nc1cc(C(F)(F)F)ccc1N1CCCCC1)c1ccncc1` [reference compound], in series [4], the “SRPK (kinase) inhibition” value is given as “inhibits SRPK”. The antiviral activity result in series [5] is recorded as “has antiviral activity”. The retinal neovascularization entry in series [6] is given as “suppress retinal neovascularization”.

One may read the melting point as the temperature of the solid-liquid transition.
